The test system of test [1] is CAPAN-1. In words: Antiausteritic activity against human Capan1 cells in nutrient-deprived medium measured after 24 hrs by WST8 assay. The test is classed as functional. A general note: Tetrazolium dyes change colour on reduction, which living cells bring about.
Test [2] has as its system PANC-1. Put plainly: Antiausteritic activity against human PANC1 cells in nutrient-deprived medium measured after 24 hrs by WST8 assay. It is filed as functional.
The test system of test [3] is PSN1. In words: Antiausteritic activity against human PSN1 cells in nutrient-deprived medium measured after 24 hrs by WST8 assay. The test is classed as functional.
Test [4] relates to MIA PaCa-2. Put plainly: Antiausteritic activity against human MIAPaCa2 cells in nutrient-deprived medium measured after 24 hrs by WST8 assay. The test is classed as functional.
Test [5] is described as follows: Antiausteritic activity against human KLM1 cells in nutrient-deprived medium measured after 24 hrs by WST8 assay. The test is classed as functional.
Test [6] concerns PANC-1. Put plainly: Induction of morphological changes in human PANC1 cells assessed as increase in dead cells after 24 hrs by ethidium bromide/acridine orange staining based inverted microscopic analysis. It is filed as functional, cell-based.
The subject of test [7] is PANC-1. In words: Antiausteritic activity against human PANC1 cells assessed as normalized cell index by measuring cell growth inhibition at 25 uM under nutrient-deprived medium measured at 15 secs interval for 24 hrs by real time cell analysis. It is filed as functional, cell-based.
Test [8] addresses RAC-alpha serine/threonine-protein kinase (Homo sapiens) (UniProt P31749). Put plainly: Inhibition of AKT phosphorylation at Ser473 residues in human PANC1 cells at 50 uM measured within 3 hrs under nutrient deprived condition by Western blot analysis. It is filed as cell-based. On the technique in general: A western blot detects proteins with antibodies after separation by electrophoresis.

For test [9], the system named is PANC-1. Put plainly: Antiausteritic activity against human PANC1 cells assessed as reduction in cell migration at 50 uM under nutrient-deprived medium measured at 5 mins interval for 30 mins by live cell imaging analysis. The test is classed as functional, cell-based.
In test [10] the test system is PANC-1. In words: Induction of morphological changes in human PANC1 cells assessed as nuclear fragmentation at 25 to 50 uM after 24 hrs by Hoechst 33342/propidium iodide staining based inverted microscopic analysis. The test is classed as functional, cell-based.
Test [11] addresses RAC-alpha serine/threonine-protein kinase (Homo sapiens) (UniProt P31749). Put plainly: Inhibition of AKT in human PANC1 cells assessed as reduction in mTOR phosphorylation at Ser2448 residue measured after 3 hrs under nutrient deprived condition by Western blot analysis. It is filed as cell-based.
The test system of test [12] is PANC-1. Put plainly: Induction of autophagy in human PANC1 cells assessed as increase in LC3-2 expression after 3 hrs under nutrient deprived medium by Western blot analysis. The test is classed as functional, cell-based.
The subject of test [13] is PANC-1. In words: Antiausteritic activity against human PANC1 cells assessed as alterations in cell morphology at 50 uM under nutrient-deprived medium measured at 5 mins interval for 2 hrs by live cell imaging analysis. The test is classed as functional, cell-based.
Test [14] deals with PANC-1. In words: Antiausteritic activity against human PANC1 cells assessed as decrease in cell index under nutrient-deprived medium measured at 15 secs interval for 24 hrs by real time cell analysis. The test is classed as functional, cell-based.
In test [15] the test system is PANC-1. Put plainly: Induction of morphological changes in human PANC1 cells assessed as increase in dead cells after 24 hrs by Hoechst 33342/propidium iodide staining based inverted microscopic analysis. The test is classed as functional, cell-based.
In test [16] the target is RAC-alpha serine/threonine-protein kinase (Homo sapiens) (UniProt P31749). In words: Inhibition of AKT in human PANC1 cells assessed as reduction in mTOR phosphorylation at Ser2448 residue at 50 uM measured after 3 hrs under nutrient deprived condition by Western blot analysis. The test is classed as cell-based.
Test [17] relates to PANC-1. Put plainly: Antiausteritic activity against human PANC1 cells assessed as decrease in cell index by measuring cell death at 50 uM under nutrient-deprived medium measured at 15 secs interval for 4 hrs by real time cell analysis. The test is classed as functional, cell-based.
The test system of test [18] is PANC-1. Put plainly: Antiausteritic activity against human PANC1 cells assessed as cell death at 50 uM under nutrient-deprived medium measured at 5 mins interval for 8 hrs by live cell imaging analysis. The test is classed as functional, cell-based.
Test [19] deals with PANC-1. In words: Induction of autophagy in human PANC1 cells assessed as increase in LC3-1 expression after 3 hrs under nutrient deprived medium by Western blot analysis. The test is classed as functional, cell-based.

Each structure is given as a SMILES string. Calls of active or inactive are those of the source. No cut-off for these calls is given here. A value given as a limit tells only on which side of the number the result lay.

As usually defined, the inhibition is the change of the read-out against control, counted positive when it falls.

Sequence of RAC-alpha serine/threonine-protein kinase (Homo sapiens) (P31749 whole entry): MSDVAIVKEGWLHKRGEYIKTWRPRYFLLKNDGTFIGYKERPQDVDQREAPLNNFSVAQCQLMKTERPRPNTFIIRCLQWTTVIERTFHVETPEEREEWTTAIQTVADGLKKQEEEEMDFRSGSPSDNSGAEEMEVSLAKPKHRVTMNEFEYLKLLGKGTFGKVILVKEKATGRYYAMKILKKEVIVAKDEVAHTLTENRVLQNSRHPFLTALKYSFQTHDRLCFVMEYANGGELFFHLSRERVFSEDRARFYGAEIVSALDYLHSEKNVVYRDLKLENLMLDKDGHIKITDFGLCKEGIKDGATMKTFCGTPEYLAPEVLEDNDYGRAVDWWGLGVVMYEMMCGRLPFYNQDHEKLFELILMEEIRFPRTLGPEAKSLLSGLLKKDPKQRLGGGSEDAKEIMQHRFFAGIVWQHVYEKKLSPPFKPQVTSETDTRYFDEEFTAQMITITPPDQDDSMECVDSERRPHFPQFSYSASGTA

Consider `CC1=C[C@@H]2[C@@H](CC1)[C@](C)(O)CC[C@H]2C(C)C`, for which the PC50 is greater than 100 µM in [1]; 46 µM in test [2]; greater than 100 µM in test [3]; 49.1 µM in test [4]; 69.7 µM in test [5].
On to `CC(=O)OCC1=C[C@@H]2[C@@H](CC1)[C@@](C)(O)CC[C@H]2C(C)C`, for which the PC50 in test [1] was greater than 100 µM; in test [3], greater than 100 µM; in test [4], 35.7 µM; in [5] it was 69 µM.
Consider `COc1cc(C[C@H]2C(=O)OC[C@@H]2Cc2ccc(OC)c(OC)c2)ccc1O` [ARCTIGENIN], for which the PC50 in [1] worked out at 1.2 µM; in [2] it was 0.5 µM; in test [3], 0.7 µM; in test [4] it was 1.9 µM; in test [5], 0.8 µM.
For `O=C1OC[C@H](Cc2ccc3c(c2)OCO3)[C@H]1Cc1ccc2c(c1)OCO2` [HINOKININ], in that order: 50.1 µM, 64.1 µM, 60.1 µM, 21.3 µM and 92.5 µM.
Turning to `CC(C)[C@@H]1CC[C@](C)(O)[C@@H]2CCC(CO)=C[C@H]21`, the PC50 in test [1] is greater than 100 µM; in [2], 82.1 µM; in test [3], 50.6 µM; in test [4] it was 29.8 µM; in [5] it was 77.2 µM.
In the case of `CC1=C[C@@H]2[C@@H](CC1)[C@@](C)(O)CC[C@H]2C(C)C` [T-CADINOL], the Activity result in test [6], in test [12], in [14], in [15] and in test [19] was “Dose-dependent effect” in each case. The result in test [7], in [9], in test [10], in test [13], in test [17] and in test [18] was Active. For the same compound, the inhibition result in test [8] is “Active”. Besides, the inhibition result in test [11] is “Dose-dependent effect”; in test [16], 100%. In test [5], this compound yielded a PC50 of 45.1 µM.
As to `CC1=C[C@@H]2[C@@H](CC1=O)[C@@](C)(O)CC[C@H]2C(C)C`, the PC50 in [1], in test [2], in [3], in test [4] and in test [5] was greater than 100 µM each time.
As to `CC(C)[C@@H]1CC[C@@](C)(O)[C@@H]2CCC(CO)=C[C@H]21`, the PC50 was greater than 100 µM in test [1]; greater than 100 µM in [2]; greater than 100 µM in test [3]; greater than 100 µM in test [4]; 95.3 µM in [5].
`C/C1=C/C(=O)CC[C@@](C)(O)CC[C@@H](C(C)C)C1=O`: the PC50 is greater than 100 µM in test [1]; greater than 100 µM in test [2]; 67.7 µM in [3]; greater than 100 µM in test [4]; 98.1 µM in test [5].
